# Data taken from US12378250B2, “Tricyclic compound as IRAK4 inhibitor” (KOREA RESEARCH INSTITUTE OF CHEMICAL TECHNOLOGY, priority 2018, dated 2025).
# Tests used:
# [1] = tested on: ISG promoter, THP1-Lucia™ ISG cell line; test: ISG promoter inhibition, THP1-Lucia ISG cell line; type: cell-based; details: 1 μg/ml Poly(dA:dT)/LyoVec, 24 hours, read-out: ISG, % inhibition degree
# In short: (§1)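 THP1-Lucia cells (NF-κB line 1×10^4/well, ISG line 2×10^4/well) preincubated with compound for 30 minutes. Stimulation then used 100 ng/ml LPS (NF-κB) or 1 μg/ml Poly(dA:dT)/LyoVec (ISG) for 24 hours. Secreted luciferase in supernatant measured by Quanti-luc luminescence.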
# [2] = tested on: IFN-α secretion, peripheral blood mononuclear cells (PBMCs); test: Suppression of IFN-α secretion in ODN2216-treated PBMCs (ELISA); type: cell-based; details: PBMC, 500 nM ODN2216, 72 hours, read-out: IFN-α, % inhibition degree
# In short: (§2)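 PBMCs (1×10^5 cells/well for TNF-α, 2×10^5 for IFN-α) preincubated 30 min with compound, then stimulated with 100 ng/ml LPS for 24 h (TNF-α) or 500 nM ODN2216 for 72 h (IFN-α). Cytokines in supernatants quantified by sandwich ELISA with TMB, absorbance 450/570 nm.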
# [3] = tested on: TMD-8 cells (B-cell lymphoma cell line); test: Antitumor effect in SCID mice transplanted with TMD-8; type: in vivo
# Procedure: As experimental animals, severe combined immunodeficiency (SCID) mice (C.B-17/IcrCrj-scid, female) were purchased from Charles River Laboratories Japan, Inc., and used. The mice were acclimatized for 2 weeks or more in an animal room, where temperature (22±1° C.) and humidity (50±10%) were automatically adjusted, and then used for experiments, and allowed to freely ingest water and feed. This animal experiment was performed with the approval of the Animal Care and Use Committee of the Korea Research Institute of Chemical Technology. As a TMD-8 cell line, which is a B-cell lymphoma cell line, a cell line whose subculture had been maintained in the Korea Research Institute of Chemical Technology was used.
# Tumors in SCID mice were induced by transplanting TMD-8 cells at 9×10^6 cells/mouse to the right subcutaneous flank of each animal, and when the size of the transplanted tumor reached about 200 mm^3, drug administration was started ([…]). The test drug was suspended in a solution of 20% PEG400 and 3% Tween 80, and orally administered once a day for 14 days. After the test drug was administered, the diameter of the tumor (that is, a long diameter (a) and a short diameter (b) was measured using a calipers every 2 to 3 days, and according to a mathematical formula [size (mm^3) of tumor=(a×b^2)/2], the size (mm^3) of tumor was calculated, and is illustrated in FIGS. 3 and 4. As control drugs, PF-06650833 (Sigma) and ibrutinib (Medichem Express) were purchased and used, and the statistical significance of the antitumor effect of the test drug was verified using a student's T-test (SigmaStat, Jandel Scientific) program.
# [4] = tested on: TNF-α secretion, peripheral blood mononuclear cells (PBMCs); test: Suppression of TNF-α secretion in LPS-treated PBMCs (ELISA); type: cell-based; details: PBMC, 100 ng/ml LPS, 24 hours, read-out: TNF-α, % inhibition degree
# In short: as §2
# [5] = tested on: NF-κB promoter, THP1-Lucia™ NF-κB cell line; test: NF-κB promoter inhibition, THP1-Lucia NF-κB cell line; type: cell-based; details: 100 ng/ml LPS, 24 hours, read-out: NF-κB, % inhibition degree
# In short: as §1
smiles,measurement,setting,value
"Fc1cncc(-c2ccc3[nH]c4ncnc(N[C@H]5CC[C@H](N6CCOCC6)CC5)c4c3c2)c1 [Compound 6aaf, 6-(5-fluoropyridin-3-yl)-N-(trans-4-morpholinocyclohexyl)-9H-pyrimido[4,5-b]indole-4-amine]",inhibition at 0.1 µM,[1]; 0.1 μM,24%
same,inhibition at 1 µM,[1]; 1 μM,83%
same,inhibition at 0.1 µM,[2]; 0.1 μM,48%
same,inhibition at 1 µM,[2]; 1 μM,96%
same,antitumor effect (tumor size) in combination with ibrutinib,"[3]; administered in combination with ibrutinib, oral, once a day for 14 days",excellent effect
same,change in body weight of the experimental animals,[3]; during the test period,not much change
same,antitumor effect (tumor size) compared to PF-06650833,"[3]; oral, once a day for 14 days, TMD-8 xenograft","did not show a significant difference in effect when compared to PF-06650833, but showed a slightly better tendency"
same,inhibition at 0.1 µM,[4]; 0.1 μM,51%
same,inhibition at 1 µM,[4]; 1 μM,124%
same,inhibition at 0.1 µM,[5]; 0.1 μM,43%
same,inhibition at 1 µM,[5]; 1 μM,82%
